One assay has as its target Cholinesterase (Homo sapiens, UniProt P06276). The assay can be described thus: In vitro inhibitory activity against Butyrylcholinesterase.
Assay [1] is described as follows: In vitro inhibitory activity against acetylcholinesterase.

Cholinesterase, sequence (P06276 whole entry): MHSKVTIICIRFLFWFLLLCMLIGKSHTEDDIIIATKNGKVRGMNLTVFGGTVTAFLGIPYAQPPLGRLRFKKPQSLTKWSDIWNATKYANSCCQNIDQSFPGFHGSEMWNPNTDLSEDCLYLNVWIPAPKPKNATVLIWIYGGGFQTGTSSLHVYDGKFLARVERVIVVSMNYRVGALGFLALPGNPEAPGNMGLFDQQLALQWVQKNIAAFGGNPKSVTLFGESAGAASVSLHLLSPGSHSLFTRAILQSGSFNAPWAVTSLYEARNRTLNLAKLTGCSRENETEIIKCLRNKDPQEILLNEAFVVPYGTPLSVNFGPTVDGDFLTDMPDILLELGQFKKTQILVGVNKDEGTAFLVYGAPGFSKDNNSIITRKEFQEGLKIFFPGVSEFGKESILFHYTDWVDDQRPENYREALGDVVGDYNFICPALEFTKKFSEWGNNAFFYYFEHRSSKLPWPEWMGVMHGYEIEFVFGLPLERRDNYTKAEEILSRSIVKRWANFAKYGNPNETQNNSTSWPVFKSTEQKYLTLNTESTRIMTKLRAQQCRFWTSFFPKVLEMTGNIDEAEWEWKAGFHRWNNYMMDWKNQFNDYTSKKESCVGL

Take `COC1=CC2CCC1C1Oc3ccccc3C(=O)[C@]21C#N` (stereo not given in full): the half-inhibitory concentration (IC50) (against Cholinesterase; in assay [1]) was above 2000 nM throughout.

With `CO[C@@H]1C=CC[C@@H]2Oc3ccc(Cl)cc3C(=O)[C@@]21C#N`, the results for the IC50 (on Cholinesterase; in assay [1]) were 270 nM and 240 nM, respectively.

For the compound `COC1C=CC[C@@H]2Oc3ccc(C)cc3C(=O)[C@]12C#N` (stereo not given in full), the IC50 (commonly the concentration at which inhibition is half-maximal) on Cholinesterase is above 2000 nM; in assay [1] it was 790 nM.

Take `CO[C@@H]1C=CC[C@@H]2Oc3ccccc3C(=O)[C@@]21C#N`: the IC50 is above 2000 nM on Cholinesterase and 1120 nM in assay [1].

As to `COC1C=C(O[Si](C)(C)C(C)(C)C)C[C@@H]2Oc3ccccc3C(=O)[C@]12C#N` (stereo not given in full), the IC50 on Cholinesterase is 350 nM; in assay [1], above 2000 nM.

For the compound `COc1ccc2c(c1)C(=O)[C@]1(C#N)C(OC)C=CC[C@@H]1O2` (stereo not given in full), the half-maximal inhibitory concentration (IC50) was determined as 1410 nM against Cholinesterase and 620 nM in assay [1].

For `N#C[C@]12C(=O)c3ccccc3OC1C1C=CC2CC1` (stereo not given in full), the figures for the 50% inhibitory concentration (IC50) (against Cholinesterase; in assay [1]) were above 2000 nM and 580 nM, respectively.

As for `CO[C@@H]1C=CC[C@@H]2Oc3ccc(Br)cc3C(=O)[C@@]21C#N`, the IC50 came to 730 nM at Cholinesterase and 1420 nM in assay [1].

For `CO[C@@H]1C=CC[C@@H]2Oc3ccc(F)cc3C(=O)[C@@]21C#N`, the IC50 at Cholinesterase is above 2000 nM; in assay [1], 280 nM.

For the compound `COC1CC(=O)C[C@@H]2Oc3ccccc3C(=O)[C@]12C#N` (stereo not given in full), the IC50 on Cholinesterase is above 2000 nM; in assay [1] it was 320 nM.

Values taken from ChEMBL document CHEMBL1131669, “Synthesis of dihydroxanthone derivatives and evaluation of their inhibitory activity against acetylcholinesterase: unique structural analogs of tacrine based on the BCD-ring of arisugacin” (Bioorg Med Chem Lett, 1999).
